Legend:
[1] = system: rat pituitary cultured cells; test: Intracellular calcium change in primary anterior pituitary cells; assay type: cell-based; conditions: FIG. 5a
[2] = target: T1, rat GHS-receptor (GHR-R) (Rattus norvegicus, UniProt O08725); test: Ca-releasing activity (increase in intracellular calcium) in CHO-GHSR62 cells, FLIPR; assay type: cell-based; conditions: CHO-GHSR62 cells
T1 construct: A full-length cDNA for rat GHR-R was obtained by RT-PCR; expressed in transfected cells
Outline: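 CHO cells stably expressing full-length rat GHS-R (CHO-GHSR62) were cultured 12–15 h, loaded with 4 μM Fluo4 for 1 h and washed with Hank's BSS containing 20 mM Hepes and 2.5 mM probenecid. Ca-releasing activity of ghrelin peptides, fragments or derivatives was read by FLIPR as the fluorescence change after sample addition.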

[3] = target: carboxyl-terminal antibody (anti-[C-Cys]-rat ghrelin [13-28] antigen); test: Radioimmunoassay: inhibition of binding of labeled rat ghrelin to carboxyl-terminal antibody; parameters: species or system rabbit; conditions: FIG. 9b, amount per reaction tube
From the text: Using antibodies raised against amino- and carboxyl-terminal rat ghrelin peptides as antigens, ghrelin in various living tissues was quantified by radioimmunoassay (RIA).
Rabbits were immunized with [C-Cys]-rat ghrelin [1-11] (rat ghrelin peptide of amino acids 1 to 11 from amino-terminal having cysteine bound to the carboxyl-terminal thereof) and [C-Cys]-rat ghrelin [13-28] (rat ghrelinpeptideof aminoacids 13 to 28 from amino-terminal having cysteine bound to the carboxyl-terminal thereof) as antigens, to form amino-terminal antibody (anti-[C-Cys]-rat ghrelin [1-11] antigen) and carboxyl-terminal antibody (anti-[C-Cys]-rat ghrelin [13-28] antigen) respectively.
That is, it was confirmed that the carboxyl-terminal antibodyhas the same affinity for ghrelin modified with fatty acid and for ghrelin from which fatty acid was released.

[4] = system: amino-terminal antibody (anti-[C-Cys]-rat ghrelin [1-11] antigen); test: Radioimmunoassay: inhibition of binding of labeled rat ghrelin to amino-terminal antibody; parameters: species or system rabbit

T1 sequence (O08725 whole entry): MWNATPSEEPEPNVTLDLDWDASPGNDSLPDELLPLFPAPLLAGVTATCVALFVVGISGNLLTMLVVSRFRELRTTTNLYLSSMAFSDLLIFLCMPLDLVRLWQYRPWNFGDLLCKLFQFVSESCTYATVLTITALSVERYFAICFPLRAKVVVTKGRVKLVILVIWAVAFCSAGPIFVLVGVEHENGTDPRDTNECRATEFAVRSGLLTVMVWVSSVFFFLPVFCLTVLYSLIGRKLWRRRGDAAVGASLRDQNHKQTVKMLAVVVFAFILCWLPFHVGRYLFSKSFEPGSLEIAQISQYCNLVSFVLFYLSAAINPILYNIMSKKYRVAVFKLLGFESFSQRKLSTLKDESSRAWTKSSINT

CC(C)C[C@H](NC(=O)[C@H](CCCCN)NC(=O)[C@H](C)NC(=O)[C@@H]1CCCN1C(=O)[C@@H]1CCCN1C(=O)[C@H](CCCCN)NC(=O)[C@H](CCCCN)NC(=O)[C@H](CO)NC(=O)[C@H](CCC(=O)O)NC(=O)[C@H](CCCCN)NC(=O)[C@H](CCCNC(=N)N)NC(=O)[C@H](CCC(N)=O)NC(=O)[C@H](CCC(N)=O)NC(=O)[C@H](C)NC(=O)[C@H](CCCCN)NC(=O)[C@H](CCC(N)=O)NC(=O)[C@H](Cc1c[nH]cn1)NC(=O)[C@H](CCC(=O)O)NC(=O)[C@@H]1CCCN1C(=O)[C@H](CO)NC(=O)[C@H](CC(C)C)NC(=O)[C@H](Cc1ccccc1)NC(=O)[C@H](CO)NC(=O)[C@H](CO)NC(=O)CN)C(=O)N[C@@H](CCC(N)=O)C(=O)N1CCC[C@H]1C(=O)N[C@@H](CCCNC(=N)N)C(=O)O [Compound 7, [Ser^3]-rat Ghrelin]
change in intracellular calcium ion concentration [1]: slightly increased Ca-releasing activity
Ca-releasing activity (in words) [2]: did not show a significant Ca-releasing activity
IC50 in binding between radioisotope-labeled rat ghrelin and the carboxyl-terminal antibody [3]: 44 fmol
reaction / affinity with the amino-terminal antibody (in words) [4]: did not react

— patent publication US7385026B1, “Modified ghrelin polypeptides” (priority 1999, dated 2008)
